Test results taken from patent publication US20120277161A1, “INHIBITION OF MULTIPLE CELL ACTIVATION PATHWAYS” (INTER-K PTY LIMITED, priority 2009, published 2012).

Columns and labels:
[1] = biological target: c-RAF (h) (Homo sapiens, UniProt P04049); assay: c-RAF kinase activity assay; assay type: biochemical; conditions: dendrimer conc. 1 μM; read-out: Percentage (%) kinase inhibition c-RAF
Experimental: In a final reaction volume of 25 μL, c-RAF (h) (5-10 mU) is incubated with 25 mM Tris pH 7.5, 0.02 mM EGTA, 0.66 mg/mL myelin basic protein, 10 mM MgAcetate and [γ-33P-ATP] (specific activity approx. 500 cpm/pmol, concentration as required). The reaction is initiated by the addition of the MgATP mix. After incubation for 40 minutes at room temperature, the reaction is stopped by the addition of 5 μL of a 3% phosphoric acid solution. 10 μL of the reaction is then spotted onto a P30 filtermat and washed three times for 5 minutes in 75 mM phosphoric acid and once in methanol prior to drying and scintillation counting.

[2] = biological target: PKB gamma (Homo sapiens, UniProt Q9Y243); assay: PKB kinase activity assay; assay type: biochemical; conditions: dendrimer conc. 1 μM; read-out: Percentage (%) kinase inhibition PKB gamma
Experimental: (§1) In a final reaction volume of 25 μL, PKB(h) (5-10 mU) is incubated with 8 mM MOPS pH 7.0, 0.2 mM EDTA, 30 μM GRPRTSSFAEGKK (SEQ ID No. 26), 10 mM MgAcetate and [γ-33P-ATP] (specific activity approx. 500 cpm/pmol, concentration as required). The reaction is initiated by the addition of the MgATP mix. After incubation for 40 minutes at room temperature, the reaction is stopped by the addition of 5 μL of a 3% phosphoric acid solution. 10 μL of the reaction mixture is then spotted onto a P30 filtermat and washed three times for 5 minutes in 75 mM phosphoric acid and once in methanol prior to drying and scintillation counting.

[3] = biological target: PKB beta (Homo sapiens, UniProt P31751); assay: PKB kinase activity assay; assay type: biochemical; conditions: dendrimer conc. 1 μM; read-out: Percentage (%) kinase inhibition PKB beta
Experimental: as §1

[4] = biological target: MEK1 (h) (Homo sapiens, UniProt Q02750); assay: MEK1 kinase activity assay; assay type: biochemical; conditions: dendrimer conc. 1 μM; read-out: Percentage (%) kinase inhibition MEK1
Experimental: The reaction is initiated by the addition of the MgATP. After incubation for 40 minutes at room temperature, 5 μL of this incubation mix is used to initiate an ERK2 (m) assay.

[5] = biological target: PI3K P110δ (Homo sapiens, UniProt O00329); assay: PI3K HTRF activity assay; assay type: biochemical; conditions: dendrimer conc. 1 μM; read-out: Percentage (%) kinase inhibition PI3K P110δ
Experimental: (§2) In a final reaction volume of 20 μL, the test PI3K is incubated in assay buffer containing 10 μM phosphatidylinositol-4,5-bisphosphate and MgATP. The reaction is initiated by the addition of the MgATP mix. After incubation for 30 minutes at room temperature, the reaction is stopped by the addition of 5 μL of stop solution containing EDTA and biotinylated phosphatidylinositol-3,4,5-trisphosphate. Finally, 5 μL of detection buffer is added (containing europium-labelled anti-GST monoclonal antibody, GST-tagged GRP1 PH domain and streptavidin-allophycocyanin). The test plate is then read in time-resolved fluorescence mode and the homogenous time-resolved fluorescence (HTRF) signal is determined according to the formula HTRF=10000×(Em665 nm/Em620 nm).

[6] = biological target: PI3K beta (Homo sapiens, UniProt P42338); assay: PI3K HTRF activity assay; assay type: biochemical; conditions: dendrimer conc. 1 μM; read-out: Percentage (%) kinase inhibition PI3K P110β
Experimental: as §2

[7] = biological target: PKC alpha (Homo sapiens, UniProt P17252); assay: PKC kinase activity assay; assay type: biochemical; conditions: dendrimer conc. 1 μM; read-out: Percentage (%) kinase inhibition PKC alpha
Experimental: (§3) In a final reaction volume of […] PKC kinase (h) (5-10 mU) is incubated with 20 mM HEPES pH 7.4, 0.03% Triton X-100, […], 0.1 mg/mL phosphatidylserine, 10 μg/mL diacylglycerol, 0.1 mg/mL histone H1 or 50 μM of the peptide ERMRPRKRQGSVRRRV (SEQ ID No. 20), 10 mM MgAcetate and [γ-33P-ATP] (specific activity approx. 500 cpm/pmol, concentration as required). The reaction is initiated by the addition of the MgATP mix. After incubation for 40 minutes at room temperature, the reaction is stopped by the addition of 5 μL of a 3% phosphoric acid solution. 10 μL of the reaction is then spotted onto a P30 filtermat and washed three times for 5 minutes in 75 mM phosphoric acid and once in methanol prior to drying and scintillation counting.

[8] = biological target: PKC beta I (Homo sapiens, UniProt P05771); assay: PKC kinase activity assay; assay type: biochemical; conditions: dendrimer conc. 1 μM; read-out: Percentage (%) kinase inhibition PKC beta I
Experimental: as §3

[9] = biological target: PKC beta II (Homo sapiens, UniProt P05771); assay: PKC kinase activity assay; assay type: biochemical; conditions: dendrimer conc. 1 μM; read-out: Percentage (%) kinase inhibition PKC beta II
Experimental: as §3

[10] = test system: HT29 human colon cancer cells; assay: Cell proliferation (MTT) assay, HT29 cells; assay type: cell-based
Experimental: (§4) 6.1 Cell Proliferation (MTT) Assay Single cell suspensions of viable trypsinised cells were seeded into 96-well tissue culture plates at a density of 2×10^3 cells per well in a volume of 100 μl of a suitable culture media supplemented with heat inactivated foetal calf serum (FCS) (e.g., Dulbecco's Modified Eagles Medium (DMEM), with 10% v/v FCS, 1% L-glutamine, 2% (v/v) Hepes, and antibiotics). A set of triplicate wells was prepared for each concentration of the peptide dendrimer being tested. Additional sample wells containing untreated cells or media alone were set up in each treatment plate and processed in parallel as reference controls. A zero-time plate of untreated cells and media-alone wells was simultaneously prepared and an MTT assay carried out on this plate at the time of addition of the kinase inhibitor (i.e., polypeptide or dendrimer) to treatment plates. All plates were cultured for 24 hours before addition of the test dendrimer.
(§5) To prepare the MTT solution 100 mg of MTT (3-(4,5-dimethylthiazolyl-2)-2,5-diphenyltetrazolium bromide) (Cat #. M-128, Sigma, St Louis Mo.), is mixed with 20 ml of PBS at pH 7.4. The resulting solution is filter sterilized (0.2 μM syringe filter) and stored at 4° C. protected from light until use. MTT substrate is cleaved in growing cells to yield a water insoluble salt. After solubilisation of the salt crystals, a coloured product is produced the measurement of which allows quantitation of the proliferative activity of the cultured cells.
(§6) Appropriate concentrations of the kinase inhibitor were prepared by dilution of freshly prepared sterile 1 mM stock solutions into cell culture media to give a final well volume of 200 μl containing 10% v/v FCS. The zero-plate was processed by addition of MTT at this time. Cell culture was continued for a further 24 or 48 hours before addition of 20 μl of MTT in PBS (5 mg/ml, 0.2 um filter sterilised). The MTT cell proliferation assay measures cell proliferation rate and, in instances where cell viability is compromised, the assay indicates a comparative reduction in cell viability. After a 3 hour incubation in the presence of MTT (5% CO2 in air at 37° C.), plates were centrifuged at 450 g for 5 minutes, supernatant was removed by gentle suction and precipitated tetrazolium salt resuspended into 150 μl DMSO:glycine (0.1M glycine, 0.1M NaCl pH 10.5) (6:1 v/v) solution. Plates were gently vortexed to complete solubilisation of crystalline material and absorbance was read at 550 nm using a microplate reader. Sample data were processed to determine the comparative growth of treated samples relative to untreated controls.
HT29 cells were cultured for 48 hours in the presence of selected dendrimers and proliferation of the cells was assessed by MTT assay essentially as described in Example 6.1. The results were calculated as percentage proliferation of control cells (not treated with dendrimer).

[11] = test system: ADDP human ovarian carcinoma cell line; assay: Cell proliferation (MTT) assay, ADDP cells; assay type: cell-based
Experimental: as §4, §5, §6

c-RAF (h), sequence (P04049 whole entry): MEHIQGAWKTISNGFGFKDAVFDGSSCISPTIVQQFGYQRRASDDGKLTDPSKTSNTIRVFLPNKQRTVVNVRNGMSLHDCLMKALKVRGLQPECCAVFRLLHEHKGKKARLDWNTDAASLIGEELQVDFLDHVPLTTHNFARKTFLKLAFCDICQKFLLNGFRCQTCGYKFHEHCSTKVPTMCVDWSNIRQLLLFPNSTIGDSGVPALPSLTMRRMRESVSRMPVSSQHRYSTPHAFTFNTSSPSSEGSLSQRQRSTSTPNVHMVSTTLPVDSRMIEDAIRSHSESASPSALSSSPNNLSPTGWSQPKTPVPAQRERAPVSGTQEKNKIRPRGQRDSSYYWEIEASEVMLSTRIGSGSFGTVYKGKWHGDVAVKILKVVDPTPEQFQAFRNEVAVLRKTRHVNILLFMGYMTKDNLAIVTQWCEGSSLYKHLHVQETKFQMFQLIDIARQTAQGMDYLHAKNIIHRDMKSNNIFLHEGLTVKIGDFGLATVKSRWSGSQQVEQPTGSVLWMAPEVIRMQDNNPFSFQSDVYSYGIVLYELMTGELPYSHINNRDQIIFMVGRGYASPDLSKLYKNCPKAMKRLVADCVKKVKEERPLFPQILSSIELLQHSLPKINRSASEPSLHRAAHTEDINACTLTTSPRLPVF
PKC beta II, sequence (P05771 1-673 isoform P05771-2): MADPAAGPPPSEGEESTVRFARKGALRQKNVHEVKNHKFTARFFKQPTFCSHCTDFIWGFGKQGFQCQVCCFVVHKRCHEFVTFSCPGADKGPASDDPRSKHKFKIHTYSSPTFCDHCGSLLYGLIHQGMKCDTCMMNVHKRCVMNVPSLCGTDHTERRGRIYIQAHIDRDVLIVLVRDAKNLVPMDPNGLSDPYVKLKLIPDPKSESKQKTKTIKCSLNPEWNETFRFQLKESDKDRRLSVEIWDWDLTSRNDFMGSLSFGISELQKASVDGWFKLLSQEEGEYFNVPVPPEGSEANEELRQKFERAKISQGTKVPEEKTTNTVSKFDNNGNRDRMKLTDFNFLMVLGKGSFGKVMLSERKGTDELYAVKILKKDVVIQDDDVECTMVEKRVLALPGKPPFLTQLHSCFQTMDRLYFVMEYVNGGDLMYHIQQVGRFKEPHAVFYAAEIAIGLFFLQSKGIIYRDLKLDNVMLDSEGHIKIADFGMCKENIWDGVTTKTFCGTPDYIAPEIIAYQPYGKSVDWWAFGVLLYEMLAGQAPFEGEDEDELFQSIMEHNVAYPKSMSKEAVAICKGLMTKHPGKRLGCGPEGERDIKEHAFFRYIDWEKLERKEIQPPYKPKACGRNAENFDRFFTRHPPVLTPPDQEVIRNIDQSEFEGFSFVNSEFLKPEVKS
PKB beta, sequence (P31751 whole entry): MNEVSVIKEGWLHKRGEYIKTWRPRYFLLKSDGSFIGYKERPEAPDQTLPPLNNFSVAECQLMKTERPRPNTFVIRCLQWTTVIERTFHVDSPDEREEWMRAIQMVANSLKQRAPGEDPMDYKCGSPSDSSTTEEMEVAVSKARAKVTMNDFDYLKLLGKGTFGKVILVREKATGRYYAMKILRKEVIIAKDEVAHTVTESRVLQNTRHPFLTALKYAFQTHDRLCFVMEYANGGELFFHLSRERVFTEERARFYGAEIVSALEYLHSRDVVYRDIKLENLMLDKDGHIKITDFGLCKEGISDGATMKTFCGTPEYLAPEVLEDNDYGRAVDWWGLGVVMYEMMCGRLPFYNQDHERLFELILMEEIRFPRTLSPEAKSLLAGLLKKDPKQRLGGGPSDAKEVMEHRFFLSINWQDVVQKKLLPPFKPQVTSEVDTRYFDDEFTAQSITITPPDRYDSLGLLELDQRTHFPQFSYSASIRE
PI3K beta, sequence (P42338 whole entry, species assumed): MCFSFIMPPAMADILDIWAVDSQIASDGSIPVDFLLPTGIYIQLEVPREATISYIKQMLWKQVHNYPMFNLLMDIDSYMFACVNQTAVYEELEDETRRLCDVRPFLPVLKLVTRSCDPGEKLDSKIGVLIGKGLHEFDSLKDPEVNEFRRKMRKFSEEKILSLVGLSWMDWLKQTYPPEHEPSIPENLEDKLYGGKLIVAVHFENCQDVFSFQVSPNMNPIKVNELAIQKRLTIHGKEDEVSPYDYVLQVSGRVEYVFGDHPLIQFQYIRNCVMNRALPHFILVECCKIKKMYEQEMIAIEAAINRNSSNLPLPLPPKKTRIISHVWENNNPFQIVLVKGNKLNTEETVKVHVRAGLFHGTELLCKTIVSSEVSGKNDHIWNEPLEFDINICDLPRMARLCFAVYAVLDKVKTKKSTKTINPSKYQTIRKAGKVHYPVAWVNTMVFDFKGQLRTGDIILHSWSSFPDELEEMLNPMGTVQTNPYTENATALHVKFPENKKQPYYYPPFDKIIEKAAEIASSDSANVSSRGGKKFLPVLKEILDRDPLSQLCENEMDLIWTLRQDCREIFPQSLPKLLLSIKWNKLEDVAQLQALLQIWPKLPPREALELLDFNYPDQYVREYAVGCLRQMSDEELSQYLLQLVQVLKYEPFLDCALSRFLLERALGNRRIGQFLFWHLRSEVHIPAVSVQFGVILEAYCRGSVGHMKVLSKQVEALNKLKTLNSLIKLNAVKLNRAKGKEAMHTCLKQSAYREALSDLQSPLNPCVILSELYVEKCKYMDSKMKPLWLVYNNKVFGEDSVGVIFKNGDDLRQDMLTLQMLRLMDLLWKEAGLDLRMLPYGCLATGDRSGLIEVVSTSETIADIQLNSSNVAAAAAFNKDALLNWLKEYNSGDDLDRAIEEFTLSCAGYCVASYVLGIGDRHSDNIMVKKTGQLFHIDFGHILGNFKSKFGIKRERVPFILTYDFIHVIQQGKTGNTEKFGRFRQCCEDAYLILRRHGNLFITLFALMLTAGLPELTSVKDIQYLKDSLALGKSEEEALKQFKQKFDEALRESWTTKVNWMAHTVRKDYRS
PI3K beta, sequence (P27986 whole entry partner, species assumed): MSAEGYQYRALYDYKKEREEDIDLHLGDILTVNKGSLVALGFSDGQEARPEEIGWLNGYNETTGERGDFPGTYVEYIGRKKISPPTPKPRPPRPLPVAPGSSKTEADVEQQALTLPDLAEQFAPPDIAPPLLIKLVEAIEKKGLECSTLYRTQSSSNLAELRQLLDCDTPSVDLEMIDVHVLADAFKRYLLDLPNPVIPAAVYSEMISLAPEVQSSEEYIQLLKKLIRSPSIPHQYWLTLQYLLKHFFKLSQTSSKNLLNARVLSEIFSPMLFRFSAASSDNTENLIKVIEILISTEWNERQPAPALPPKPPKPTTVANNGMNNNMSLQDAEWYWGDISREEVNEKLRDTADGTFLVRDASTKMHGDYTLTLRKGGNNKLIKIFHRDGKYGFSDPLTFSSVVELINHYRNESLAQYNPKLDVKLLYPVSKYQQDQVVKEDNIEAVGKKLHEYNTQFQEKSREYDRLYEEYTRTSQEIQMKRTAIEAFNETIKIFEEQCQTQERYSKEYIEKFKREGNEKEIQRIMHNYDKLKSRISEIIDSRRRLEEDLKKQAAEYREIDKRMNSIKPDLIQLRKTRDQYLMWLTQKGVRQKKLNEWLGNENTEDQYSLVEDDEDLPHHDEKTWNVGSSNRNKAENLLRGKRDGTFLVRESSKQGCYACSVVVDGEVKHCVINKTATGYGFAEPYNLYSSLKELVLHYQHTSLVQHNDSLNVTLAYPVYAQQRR
MEK1 (h), sequence (Q02750 whole entry): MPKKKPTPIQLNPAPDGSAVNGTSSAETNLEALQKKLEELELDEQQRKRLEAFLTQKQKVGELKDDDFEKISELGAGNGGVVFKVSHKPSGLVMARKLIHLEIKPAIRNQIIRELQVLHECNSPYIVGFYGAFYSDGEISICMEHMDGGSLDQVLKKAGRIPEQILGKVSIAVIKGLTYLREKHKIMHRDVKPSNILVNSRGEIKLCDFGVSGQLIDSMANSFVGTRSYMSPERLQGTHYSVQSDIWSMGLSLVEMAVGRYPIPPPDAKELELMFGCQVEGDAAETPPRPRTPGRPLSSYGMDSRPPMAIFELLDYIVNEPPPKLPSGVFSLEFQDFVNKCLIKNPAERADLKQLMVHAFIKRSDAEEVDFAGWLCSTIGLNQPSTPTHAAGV

CC(C)C[C@@H](NC(=O)[C@H]1CCCN1C(=O)[C@@H](CC(N)=O)NC(=O)[C@@H](CCCNC(=N)N)NC(=O)[C@@H](C)NC(=O)[C@@H](CCCNC(=N)N)NC(=O)[C@@H](CO)NC(=O)[C@H](N)CCCNC(=N)N)C(=O)N[C@H](Cc1ccc(O)cc1)C(=O)N[C@H](CCCNC(=N)N)C(=O)NCCCC[C@H](NC(=O)[C@H](CCCCNC(=O)[C@H](CCCCNC(=O)[C@@H](CCCNC(=N)N)NC(=O)[C@@H](Cc1ccc(O)cc1)NC(=O)[C@@H](CC(C)C)NC(=O)[C@H]1CCCN1C(=O)[C@@H](CC(N)=O)NC(=O)[C@@H](CCCNC(=N)N)NC(=O)[C@@H](C)NC(=O)[C@@H](CCCNC(=N)N)NC(=O)[C@@H](CO)NC(=O)[C@H](N)CCCNC(=N)N)NC(=O)[C@@H](CCCNC(=N)N)NC(=O)[C@@H](Cc1ccc(O)cc1)NC(=O)[C@@H](CC(C)C)NC(=O)[C@H]1CCCN1C(=O)[C@@H](CC(N)=O)NC(=O)[C@@H](CCCNC(=N)N)NC(=O)[C@@H](C)NC(=O)[C@@H](CCCNC(=N)N)NC(=O)[C@@H](CO)NC(=O)[C@H](N)CCCNC(=N)N)NC(=O)[C@H](CCCCNC(=O)[C@@H](CCCNC(=N)N)NC(=O)[C@@H](Cc1ccc(O)cc1)NC(=O)[C@@H](CC(C)C)NC(=O)[C@H]1CCCN1C(=O)[C@@H](CC(N)=O)NC(=O)[C@@H](CCCNC(=N)N)NC(=O)[C@@H](C)NC(=O)[C@@H](CCCNC(=N)N)NC(=O)[C@@H](CO)NC(=O)[C@H](N)CCCNC(=N)N)NC(=O)[C@@H](CCCNC(=N)N)NC(=O)[C@@H](Cc1ccc(O)cc1)NC(=O)[C@@H](CC(C)C)NC(=O)[C@H]1CCCN1C(=O)[C@@H](CC(N)=O)NC(=O)[C@@H](CCCNC(=N)N)NC(=O)[C@@H](C)NC(=O)[C@@H](CCCNC(=N)N)NC(=O)[C@@H](CO)NC(=O)[C@H](N)CCCNC(=N)N)C(=O)NCCCC[C@H](NC(=O)[C@H](CCCCNC(=O)[C@@H](CCCNC(=N)N)NC(=O)[C@@H](Cc1ccc(O)cc1)NC(=O)[C@@H](CC(C)C)NC(=O)[C@H]1CCCN1C(=O)[C@@H](CC(N)=O)NC(=O)[C@@H](CCCNC(=N)N)NC(=O)[C@@H](C)NC(=O)[C@@H](CCCNC(=N)N)NC(=O)[C@@H](CO)NC(=O)[C@H](N)CCCNC(=N)N)NC(=O)[C@H](CCCCNC(=O)[C@H](CCCCNC(=O)[C@@H](CCCNC(=N)N)NC(=O)[C@@H](Cc1ccc(O)cc1)NC(=O)[C@@H](CC(C)C)NC(=O)[C@H]1CCCN1C(=O)[C@@H](CC(N)=O)NC(=O)[C@@H](CCCNC(=N)N)NC(=O)[C@@H](C)NC(=O)[C@@H](CCCNC(=N)N)NC(=O)[C@@H](CO)NC(=O)[C@H](N)CCCNC(=N)N)NC(=O)[C@@H](CCCNC(=N)N)NC(=O)[C@@H](Cc1ccc(O)cc1)NC(=O)[C@@H](CC(C)C)NC(=O)[C@H]1CCCN1C(=O)[C@@H](CC(N)=O)NC(=O)[C@@H](CCCNC(=N)N)NC(=O)[C@@H](C)NC(=O)[C@@H](CCCNC(=N)N)NC(=O)[C@@H](CO)NC(=O)[C@H](N)CCCNC(=N)N)NC(=O)[C@H](CCCCNC(=O)[C@@H](CCCNC(=N)N)NC(=O)[C@@H](Cc1ccc(O)cc1)NC(=O)[C@@H](CC(C)C)NC(=O)[C@H]1CCCN1C(=O)[C@@H](CC(N)=O)NC(=O)[C@@H](CCCNC(=N)N)NC(=O)[C@@H](C)NC(=O)[C@@H](CCCNC(=N)N)NC(=O)[C@@H](CO)NC(=O)[C@H](N)CCCNC(=N)N)NC(=O)[C@@H](CCCNC(=N)N)NC(=O)[C@@H](Cc1ccc(O)cc1)NC(=O)[C@@H](CC(C)C)NC(=O)[C@H]1CCCN1C(=O)[C@@H](CC(N)=O)NC(=O)[C@@H](CCCNC(=N)N)NC(=O)[C@@H](C)NC(=O)[C@@H](CCCNC(=N)N)NC(=O)[C@@H](CO)NC(=O)[C@H](N)CCCNC(=N)N)C(=O)NCCC(N)=O
inhibition at 1 µM [1]: 85%
inhibition at 1 µM [2]: 97%
inhibition at 1 µM [3]: 87%
inhibition at 1 µM [4]: 95%
inhibition at 1 µM [5]: 61%
inhibition at 1 µM [6]: 24%
inhibition at 1 µM [7]: 53%
inhibition at 1 µM [8]: 79%
inhibition at 1 µM [9]: 77%

dendrimer presenting 12 monomer units of the peptide RSKAKNPLYR [Dend 12-10(4)]
IC50 ([10]; MTT, 48 hours): 1 µM
dendrimer concentration required for total kill, HT29 cells ([10]; MTT, 48 hours): 10 µM
inhibition of proliferation of HT29 cells ([10]; MTT, 48 hours): more effective than Dend 9-10(4)

AAVALLPAVLLALLARSKAKNPLYR [IK2]
effect in combination with cisplatin versus calculated additive effect, HT29 cells ([10]; 30 μM IK2 peptide, FIG. 9): synergistic effect
observed inhibition in combination with oxaliplatin versus calculated additive effect, ADDP cells ([11]; 5 μM or 10 μM IK2 peptide, FIGS. 7A, 7B): synergistic outcome
effect in combination with cisplatin versus calculated additive effect, ADDP cells ([11]; 30 μM IK2 peptide, FIG. 8): synergistic effect
inhibition of the growth of ADDP cancer cells in combination with cisplatin ([11]; compared to cisplatin or IK2 alone, FIG. 6): high level inhibition of the growth
inhibition of the growth of ADDP cancer cells in combination with oxaliplatin ([11]; compared to oxaliplatin or IK2 alone): high level inhibition of the growth
